Measurements: PMC7200681, “The calcitonin-like system is an ancient regulatory system of biomineralization” (Scientific Reports, 2020)
Bridge positions count the residues as written; N and C are the ends.

Test system: mussel mantle edge
Test: Ex-vivo incubation of mantle edge fragments, calcium quantification by MP-AES
Set-up: species or system Mytilus galloprovincialis
Details: 4 h at 19-20 °C; CALCIIa 10 μM or ouabain 2 mM alone; MP-AES at 393.366 nm; mean ± SEM; control 400.67 ±13.83 ppm; SEM
Protocol: Figure 7 Effect of the mussel calcitonin-like peptide on (A) calcium (ppm) concentration in the mantle edge and (B) calcium uptake by mantle cells of the Mediterranean mussel. (A) The quantity of calcium (ppm) present in the mantle edge after mussel CALCIIa peptide incubation was measured using a Microwave Plasma-Atomic Emission Spectrometer (MP-AES, Agilent) at 393.366 nm. A standard curve for calcium was performed before analysing the samples. In vitro mantle assays with CALCIIa peptide and with ouabain and control (culture medium and mantle) were repeated on at least 3 independent occasions. For each assay at least ten replicates were performed and the mantle edge distal to the umbo was used (one mantle fragment per replica). Prism GraphPad v5 software was used to assess the significance of differences between the groups using a One-way Anova and Tukey’s multiple comparison test. […] C - control (no peptide or ouabain); P - peptide (10 μM); O - ouabain (2 mM), OP - ouabain (2 mM) and peptide (10 μM); PreOP - pre -stimulation for 1 hour with the peptide followed by 4 hours incubation with OP. (B) Digital photographs of the mussel mantle cells in the presence (CALCIIa, 10 μM) or absence (control) of the mussel CALCIIa peptide. Calcium ions were stained with 50 mM of Calcein (green) and cell nuclei (blue) with DAPI (Acros Organics). An increase in cellular fluorescence represents an increase in calcium uptake. Fluorescence of the CALCIIa peptide stimulated cells was 1.9 times higher than the control. The average mantle cell size was 3–4 μm and fluorescent images were taken using a Leica DM IL microscope coupled to a Visicam HDMI 6 digital camera and photographs were analysed using ImageJ software (v. 1.52a) to calculate the fluorescence intensity and for image overlay. The scale bar is indicated.
The posterior mantle edge region of the Mediterranean mussel was collected and washed in culture medium. The composition of the culture medium was as described in[91] […]

H-CTWGGGMSDEMCSTVDIDEIQRSFQVIHDRNSP-NH2 (disulfide 1-12 (inferred)) [CALCIIa, Mediterranean mussel calcitonin-like mature peptide, 33 aa, synthesized with disulphide bond and C-terminal amidation]
Calcium in the mantle edge after incubation: 513.38 ± 24.33 ppm
